This note sets out measurements from ChEMBL document CHEMBL1955715 (Bioorg Med Chem Lett, 2012).

Data set [1] deals with Rattus norvegicus. Kind of data set: Wake promoting activity in EEG/EMG Sprague-Dawley rat model assessed as total time awake at 100 mg/kg, ip measured up to 3 hrs (reference value: 65 +/- 9 mins). Conditions: route intraperitoneal.
The target in the next data set is Cytochrome P450 2C19 (Homo sapiens, UniProt P33261). The experiment in a line: Inhibition of CYP2C19. The data set is classed as ADME.
Cytochrome P450 2C19, sequence (P33261 whole entry): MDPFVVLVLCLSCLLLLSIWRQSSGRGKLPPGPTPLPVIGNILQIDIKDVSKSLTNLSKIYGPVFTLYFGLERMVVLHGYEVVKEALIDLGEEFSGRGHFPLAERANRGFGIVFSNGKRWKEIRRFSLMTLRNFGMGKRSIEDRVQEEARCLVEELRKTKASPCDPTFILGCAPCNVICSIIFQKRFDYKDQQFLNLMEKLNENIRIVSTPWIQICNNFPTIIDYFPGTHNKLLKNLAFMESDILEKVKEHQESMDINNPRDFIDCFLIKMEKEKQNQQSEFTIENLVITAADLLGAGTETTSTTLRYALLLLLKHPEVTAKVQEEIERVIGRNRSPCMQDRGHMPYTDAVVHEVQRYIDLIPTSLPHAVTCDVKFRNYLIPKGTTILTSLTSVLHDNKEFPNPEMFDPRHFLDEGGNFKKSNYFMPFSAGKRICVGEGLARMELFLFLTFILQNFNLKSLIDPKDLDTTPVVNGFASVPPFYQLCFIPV
A short description of data set [2]: Metabolic stability in human liver S9 fraction assessed as compound remaining after 2 hrs. Conditions: read-out: Stability. The data set is classed as ADME, subcellular.
Another data set has as its system Salmonella typhimurium. The experiment in a line: Mutagenic activity in Salmonella Typhimurium by Mini-Ames test. The data set is classed as toxicity, organism-based. Conditions: salmonella enterica subsp. enterica serovar typhimurium.
Another data set concerns the target CYP2D6 (Homo sapiens, UniProt P10635). Kind of data set: Inhibition of CYP2D6 at 10 uM. The data set is classed as ADME.
The test system of data set [3] is Rattus norvegicus. Kind of data set: Wake promoting activity in po dosed EEG/EMG Sprague-Dawley rat model assessed as slow wave sleep and rapid eye movement sleep. The data set is classed as functional, organism-based.
Data set [4] addresses Sodium-dependent serotonin transporter (Rattus norvegicus, UniProt P31652). Kind of data set: Inhibition of rat SERT-mediated serotonin reuptake.
The target of the next data set is CYP3A4 (Homo sapiens, UniProt P08684). The experiment in a line: Inhibition of CYP3A4 at 10 uM. It is filed as ADME.
CYP3A4, sequence (P08684 whole entry): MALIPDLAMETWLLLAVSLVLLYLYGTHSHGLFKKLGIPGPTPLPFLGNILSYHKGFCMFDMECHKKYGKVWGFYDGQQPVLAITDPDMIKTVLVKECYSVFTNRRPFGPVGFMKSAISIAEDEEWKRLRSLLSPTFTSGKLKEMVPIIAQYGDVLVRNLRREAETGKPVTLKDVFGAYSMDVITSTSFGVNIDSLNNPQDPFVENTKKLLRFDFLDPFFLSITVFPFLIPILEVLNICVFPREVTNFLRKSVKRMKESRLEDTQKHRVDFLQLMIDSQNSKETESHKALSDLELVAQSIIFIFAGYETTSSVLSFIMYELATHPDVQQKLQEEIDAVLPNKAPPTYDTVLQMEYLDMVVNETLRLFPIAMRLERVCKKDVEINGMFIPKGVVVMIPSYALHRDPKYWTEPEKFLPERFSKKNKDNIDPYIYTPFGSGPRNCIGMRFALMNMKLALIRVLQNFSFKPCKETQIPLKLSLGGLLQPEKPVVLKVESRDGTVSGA
For data set [5], the target named is Voltage-gated inwardly rectifying potassium channel KCNH2 (Homo sapiens, UniProt Q12809). The experiment in a line: Inhibition of human ERG at 10 uM.
Voltage-gated inwardly rectifying potassium channel KCNH2, sequence (Q12809 whole entry): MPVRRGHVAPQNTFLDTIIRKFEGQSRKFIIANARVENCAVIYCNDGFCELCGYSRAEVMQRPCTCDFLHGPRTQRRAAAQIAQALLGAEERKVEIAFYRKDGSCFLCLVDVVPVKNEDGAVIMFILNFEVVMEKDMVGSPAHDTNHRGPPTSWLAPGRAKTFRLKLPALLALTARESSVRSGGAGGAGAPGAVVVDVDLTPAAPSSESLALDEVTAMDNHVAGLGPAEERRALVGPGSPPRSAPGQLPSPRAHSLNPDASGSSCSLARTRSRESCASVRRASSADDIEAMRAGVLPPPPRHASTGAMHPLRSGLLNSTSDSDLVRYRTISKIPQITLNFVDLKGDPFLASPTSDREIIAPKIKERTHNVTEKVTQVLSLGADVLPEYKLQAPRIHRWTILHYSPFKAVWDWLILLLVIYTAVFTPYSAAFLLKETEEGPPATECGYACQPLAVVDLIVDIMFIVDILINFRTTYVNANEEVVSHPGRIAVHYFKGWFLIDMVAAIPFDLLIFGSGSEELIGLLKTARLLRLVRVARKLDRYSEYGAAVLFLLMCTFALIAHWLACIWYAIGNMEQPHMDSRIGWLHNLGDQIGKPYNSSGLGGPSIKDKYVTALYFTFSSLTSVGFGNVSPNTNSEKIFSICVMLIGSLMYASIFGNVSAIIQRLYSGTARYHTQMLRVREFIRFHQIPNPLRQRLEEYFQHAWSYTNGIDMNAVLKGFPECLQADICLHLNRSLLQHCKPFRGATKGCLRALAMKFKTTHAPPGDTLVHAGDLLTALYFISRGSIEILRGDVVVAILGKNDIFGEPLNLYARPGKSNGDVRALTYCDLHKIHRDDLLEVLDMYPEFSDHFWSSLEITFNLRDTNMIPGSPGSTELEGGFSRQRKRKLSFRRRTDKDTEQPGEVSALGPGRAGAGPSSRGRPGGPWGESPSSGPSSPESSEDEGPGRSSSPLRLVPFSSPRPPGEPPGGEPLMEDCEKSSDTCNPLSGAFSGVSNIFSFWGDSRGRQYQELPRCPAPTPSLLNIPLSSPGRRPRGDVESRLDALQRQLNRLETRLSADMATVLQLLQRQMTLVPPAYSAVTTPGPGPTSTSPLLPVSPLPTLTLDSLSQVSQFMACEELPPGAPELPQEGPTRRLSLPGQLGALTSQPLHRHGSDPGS
Data set [6] can be described thus: Solubility of the compound in water at pH 7.4. The data set is classed as physicochemical.
A further data set concerns the target Transporter (Rattus norvegicus, UniProt Q63380). The experiment in a line: Inhibition of rat NET-mediated norepinephrine reuptake.
For data set [7], the target named is T1, Sodium-dependent dopamine transporter (Rattus norvegicus, UniProt P23977). Kind of data set: Inhibition of rat DAT.
T1 sequence (P23977 whole entry): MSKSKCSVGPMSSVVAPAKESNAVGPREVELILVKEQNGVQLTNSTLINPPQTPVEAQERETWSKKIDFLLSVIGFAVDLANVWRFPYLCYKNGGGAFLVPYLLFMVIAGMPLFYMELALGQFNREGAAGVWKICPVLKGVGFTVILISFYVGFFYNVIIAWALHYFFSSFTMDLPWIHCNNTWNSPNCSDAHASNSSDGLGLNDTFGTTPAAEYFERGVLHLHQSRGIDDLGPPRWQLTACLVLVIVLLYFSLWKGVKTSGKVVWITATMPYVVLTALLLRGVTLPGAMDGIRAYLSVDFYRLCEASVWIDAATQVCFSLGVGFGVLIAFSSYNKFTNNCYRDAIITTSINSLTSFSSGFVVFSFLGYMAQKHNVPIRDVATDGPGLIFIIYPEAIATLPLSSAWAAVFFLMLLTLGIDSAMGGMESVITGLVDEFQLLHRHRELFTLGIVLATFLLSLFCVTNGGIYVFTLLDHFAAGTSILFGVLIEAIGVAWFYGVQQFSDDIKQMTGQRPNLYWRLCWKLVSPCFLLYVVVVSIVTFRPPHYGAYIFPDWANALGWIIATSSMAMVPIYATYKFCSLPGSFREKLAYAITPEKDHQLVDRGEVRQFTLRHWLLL
Data set [8] concerns the target T1, Sodium-dependent dopamine transporter. Kind of data set: Inhibition of rat DAT-mediated dopamine reuptake.
Another data set has as its system Plasma. Kind of data set: Plasma concentration in human. The data set is classed as ADME, cell-free.

Active and inactive are the calls of the source. The calls are words filed in the database; no cut-off is given here.

By IC50 is commonly meant the concentration that inhibits the measured activity by half. Higher therefore signals weaker potency in that assay. As usually defined, the inhibition is the percentage by which the read-out fell short of the control. Read a high inhibition as strong suppression. In general, solubility refers to the dissolved amount per volume that the medium holds. A high value points to much dissolved substance.

CYP2D6, sequence (P10635 whole entry): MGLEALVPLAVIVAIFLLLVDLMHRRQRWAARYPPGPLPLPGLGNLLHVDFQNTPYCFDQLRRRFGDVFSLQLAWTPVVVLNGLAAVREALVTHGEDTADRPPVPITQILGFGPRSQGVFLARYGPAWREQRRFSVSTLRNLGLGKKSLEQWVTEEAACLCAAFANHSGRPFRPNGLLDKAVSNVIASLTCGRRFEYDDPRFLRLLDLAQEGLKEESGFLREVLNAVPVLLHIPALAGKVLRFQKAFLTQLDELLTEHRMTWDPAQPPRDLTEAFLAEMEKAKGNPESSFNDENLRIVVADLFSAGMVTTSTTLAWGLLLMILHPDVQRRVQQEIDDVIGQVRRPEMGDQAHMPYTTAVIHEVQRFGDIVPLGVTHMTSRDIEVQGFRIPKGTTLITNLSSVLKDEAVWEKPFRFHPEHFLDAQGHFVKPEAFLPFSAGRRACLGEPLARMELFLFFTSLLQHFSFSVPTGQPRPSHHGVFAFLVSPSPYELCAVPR
Transporter, sequence (Q63380 whole entry): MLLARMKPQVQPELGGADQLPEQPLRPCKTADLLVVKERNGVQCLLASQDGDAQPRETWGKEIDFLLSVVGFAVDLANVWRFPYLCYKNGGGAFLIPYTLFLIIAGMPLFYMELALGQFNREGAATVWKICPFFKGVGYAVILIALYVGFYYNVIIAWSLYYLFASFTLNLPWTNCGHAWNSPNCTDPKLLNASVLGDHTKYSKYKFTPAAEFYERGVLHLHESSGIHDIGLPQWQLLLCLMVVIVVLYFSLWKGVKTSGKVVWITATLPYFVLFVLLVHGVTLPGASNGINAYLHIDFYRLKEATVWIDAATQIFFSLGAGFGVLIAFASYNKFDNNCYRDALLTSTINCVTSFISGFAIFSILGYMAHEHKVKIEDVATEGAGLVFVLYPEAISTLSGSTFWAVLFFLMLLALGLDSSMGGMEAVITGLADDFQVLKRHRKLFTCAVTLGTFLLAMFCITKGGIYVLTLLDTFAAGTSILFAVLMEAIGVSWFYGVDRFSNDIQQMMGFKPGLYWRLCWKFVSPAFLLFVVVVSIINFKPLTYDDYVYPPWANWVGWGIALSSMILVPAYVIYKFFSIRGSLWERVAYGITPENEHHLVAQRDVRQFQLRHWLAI
Sodium-dependent serotonin transporter, sequence (P31652 whole entry): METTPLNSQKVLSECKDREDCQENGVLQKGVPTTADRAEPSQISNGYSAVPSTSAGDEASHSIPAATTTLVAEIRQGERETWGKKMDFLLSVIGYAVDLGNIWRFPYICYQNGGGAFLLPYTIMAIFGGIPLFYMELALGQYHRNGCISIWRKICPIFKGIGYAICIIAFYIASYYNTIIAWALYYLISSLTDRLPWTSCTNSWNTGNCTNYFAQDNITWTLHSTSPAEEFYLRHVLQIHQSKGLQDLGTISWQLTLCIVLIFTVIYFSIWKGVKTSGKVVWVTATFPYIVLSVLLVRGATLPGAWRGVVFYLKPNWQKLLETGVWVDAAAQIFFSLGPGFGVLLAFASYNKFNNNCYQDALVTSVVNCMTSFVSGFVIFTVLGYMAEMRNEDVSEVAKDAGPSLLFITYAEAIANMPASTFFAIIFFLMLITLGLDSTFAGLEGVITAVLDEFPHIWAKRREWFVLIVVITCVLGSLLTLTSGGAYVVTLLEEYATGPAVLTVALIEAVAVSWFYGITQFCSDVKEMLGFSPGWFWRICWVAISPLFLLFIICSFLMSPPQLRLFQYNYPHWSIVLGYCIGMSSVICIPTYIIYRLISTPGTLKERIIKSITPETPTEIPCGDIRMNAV

On to `NC(=O)C[S+]([O-])Cc1ccccc1-c1ccc(F)cc1` (stereo not drawn), for which, in the data set with Rattus norvegicus [1], the Time was 147 min.

Take `NC(=O)C[S+]([O-])Cc1ccccc1-c1cccc(Cl)c1` (stereo not drawn): the Time with Rattus norvegicus [1] amounted to 106 min.

As to `NC(=O)C[S+]([O-])Cc1ccccc1-c1ccc(Br)cc1` (stereo not drawn), in the data set on Rattus norvegicus [1], the Time worked out at 174 min.

For `NC(=O)C[S+]([O-])Cc1cccc(-c2ccc(Cl)cc2)c1` (stereo not drawn), the Time with Rattus norvegicus [1] was 96 min.

Consider `Cc1ccc(-c2ccccc2C[S+]([O-])CC(N)=O)cc1` (stereo not drawn), for which, in the data set with Rattus norvegicus [1], the Time is 146 min.

As to `COc1ccccc1-c1ccccc1C[S+]([O-])CC(N)=O` (stereo not drawn), in the data set with Rattus norvegicus [1], the Time turned out to be 86 min.

On to `NC(=O)C[S+]([O-])Cc1ccccc1-c1ccc(OC(F)(F)F)cc1` (stereo not drawn), for which the Time in the data set on Rattus norvegicus [1] amounted to 108 min.

For the compound `Cc1ccccc1-c1cccc(C[S+]([O-])CC(N)=O)c1` (stereo not drawn), the Time with Rattus norvegicus [1] turned out to be 117 min.

`NC(=O)C[S+]([O-])Cc1ccccc1-c1ccccc1` (stereo not drawn): the Time with Rattus norvegicus [1] was 119 min.

On to `CC(=O)c1ccc(-c2ccccc2C[S+]([O-])CC(N)=O)cc1` (stereo not drawn), for which the Time in the data set on Rattus norvegicus [1] amounted to 77 min.

As to `NC(=O)C[S+]([O-])Cc1ccccc1-c1ccccc1F` (stereo not drawn), the Time in the data set with Rattus norvegicus [1] amounted to 64 min.

For the compound `NC(=O)C[S+]([O-])Cc1ccc(-c2ccc(Cl)cc2)cc1` (stereo not drawn), the Time in the data set on Rattus norvegicus [1] came to 92 min.

Consider `NC(=O)C[S+]([O-])Cc1ccccc1-c1ccc(Cl)cc1` (racemic), for which the IC50 against Cytochrome P450 2C19 is 19 µM; in data set [4], greater than 300 µM; on Transporter, 10 µM; in data set [7] it was 600 nM; in [8] it was 830 nM. Also, the remaining at 2 h in data set [2] stood at 94%. The Activity entry with Salmonella typhimurium is “Non-toxic”. Moreover, in the data set on Rattus norvegicus [1], the Time is reported as 176 min. For the same compound, the inhibition at 10 µM against CYP2D6 and on CYP3A4 was less than 10% in each case. The outcome with Rattus norvegicus [3] was Active. Moreover, the “inhibition (INH)” value in [5] is recorded as “Not Active”. Also, in data set [6], the solubility is greater than 100 µg/mL.

On to `NC(=O)C[S+]([O-])C(c1ccccc1)c1ccccc1` (stereo not drawn) [MODAFINIL], for which the IC50 on Cytochrome P450 2C19 worked out at 11 µM. The remaining at 2 h in [2] was 77%. The Activity result with Salmonella typhimurium is recorded as “Non-toxic”. In the data set on Rattus norvegicus [1], the Time turned out to be 117 min. The inhibition at 10 µM against CYP2D6 and on CYP3A4 was less than 10% each time. The same compound gave a concentration with Plasma greater than 30 µM. The same compound gave a solubility in [6] greater than 100 µg/mL.

`NC(=O)C[S+]([O-])Cc1ccc(-c2ccccc2)cc1` (stereo not drawn): in the data set with Rattus norvegicus [1], the Time is 100 min.

As for `NC(=O)C[S+]([O-])Cc1ccccc1-c1cccc(C(N)=O)c1` (stereo not drawn), the Time in the data set with Rattus norvegicus [1] is given as 62 min.

For `N#Cc1ccc(-c2ccccc2C[S+]([O-])CC(N)=O)cc1` (stereo not drawn), the Time in the data set on Rattus norvegicus [1] is listed as 65 min.

As to `N#Cc1cccc(-c2ccccc2C[S+]([O-])CC(N)=O)c1` (stereo not drawn), in the data set on Rattus norvegicus [1], the Time came out at 99 min.

Consider `NC(=O)C[S+]([O-])Cc1ccccc1-c1ccccc1Cl` (stereo not drawn), for which, in the data set on Rattus norvegicus [1], the Time turned out to be 49 min.
